Laboratory results as given in patent US8324156B2, “Oral insulin therapies and protocol” (Emisphere Technologies, Inc., priority 2003, dated 2012).
Where two headings read alike, the source gives them in different places.

Assays:
[1] = Genotoxicity studies; details: four genotoxicity studies
Procedure: (§1) Toxicology studies were also conducted in rats and monkeys to assess the potential toxicity of 4-CNAB, alone or in combination with insulin. Based on the 14-day oral repeated dose toxicity studies, the NOAEL (No-Adverse Effect Level) was estimated to be 500 mg/kg in Sprague-Dawley rats, and 400 mg/kg in rhesus monkeys. […] Developmental and reproductive toxicology studies have not yet been conducted.

[2] = tested on: receptors; assay: Receptor binding screening assays
Procedure: Insulin/4-CNAB capsules were evaluated by Emisphere Technologies, Inc. in a nonclinical program that included pharmacological screening, pharmacokinetic and metabolic profiles, and toxicity assessments in rats and monkeys. […] Similarly, for a fixed oral dose of 4-CNAB, insulin absorption increased with increasing doses of insulin.

[3] = Plasma 4-CNAB concentration (Example 1); format: in vivo, human; details: after start of meal intake; 200 mg or 400 mg 4-CNAB capsules
Procedure: During each treatment session, blood samples were collected for determination of plasma concentrations of 4-CNAB, insulin and C-peptide, and for blood glucose concentration. Sampling started 1 hour before intake of the test meal and continued until 6 hours thereafter. Blood samples were drawn via a venous cannula and collected related to the start of the test meal at time point 0. The timing of scheduled samples could be adjusted according to clinical needs or needs for pharmacokinetic data. The duration of each session was approximately 8-9 hours. All experiments were performed after an overnight fast of approximately 12 hours.
Blood samples for determination of 4-CNAB plasma concentrations (2 mL in sodium heparin tube) were drawn 10, 20, 30, 40, 60, 90, 120, 240 and 360 minutes after start of meal intake (9 samples per session). Blood samples for determination of insulin and C-peptide plasma concentrations (5 mL in sodium heparin tube) were drawn at −60 and −30 minutes, at time 0 (start of meal intake), and after 10, 20, 30, 40, 50, 60, 75, 90, 105, 120, 150, 180, 210, 240, 300, and 360 minutes (19 samples per session). Plasma concentrations of insulin were determined by a GLP-validated microparticle enzyme immunoassay (MEIA).
Blood samples for the determination of plasma concentrations of insulin, 4-CNAB and C-peptide were collected at defined intervals, as discussed above. […]

[4] = tested on: Sprague-Dawley rats; assay: Oral repeated dose toxicity studies in rats; format: in vivo, rat
Procedure: as §1

[5] = tested on: rhesus monkeys; assay: Oral repeated dose toxicity studies in monkeys; format: in vivo, rhesus monkey
Procedure: as §1

[6] = Moisture content / hygroscopicity of 4-CNAB; format: physicochemical; details: below 75% RH
[7] = cited from earlier work; for time to peak plasma/serum drug concentration (tmax): fasting or immediately prior to a meal
[8] = tested on: blood glucose; details: oral sulfonylureas; cited from earlier work
[9] = tested on: blood glucose; details: marketed insulin preparations; cited from earlier work
[10] = dosed three times daily before meals

O=C([O-])CCCNC(=O)c1ccc(Cl)cc1O.[Na+] [4-CNAB, sodium N-[4-(4-chloro-2 hydroxybenzoyl)amino]butyrate]
genotoxicity findings [1]: no positive findings
inherent pharmacological activity [2]: no inherent pharmacological activity
plasma 4-CNAB concentration after 2 hours relative to the levels seen after 10 minutes [3]: less than 10%
NOAEL (No-Adverse Effect Level) ([4]; 14-day oral repeated dose, Sprague-Dawley rats, 4-CNAB alone or in combination with insulin): 500 mg/kg
NOAEL ([4]; 90-day oral repeated dose, rats): 250 mg/kg
NOAEL (No-Adverse Effect Level) ([5]; 14-day oral repeated dose, rhesus monkeys): 400 mg/kg
NOAEL ([5]; 90-day oral repeated dose, monkeys): 600 mg/kg
residual moisture content [6]: < 0.5%

CCc1ccc(CCOc2ccc(CC3SC(=O)NC3=O)cc2)nc1 (stereo not drawn) [ACTOS® thiazolidinedione, pioglitazone]
first measurable in serum ([7]; oral, fasting state): ≤ 30 min
time to peak plasma/serum drug concentration (tmax) ([7]; oral): ≤ 2 h

CN(CCOc1ccc(CC2SC(=O)NC2=O)cc1)c1ccccn1 (stereo not drawn) [AVANDIA® thiazolidinedione, rosiglitazone]
time to peak concentration with food ([7]; food effect): about 1.75 hours
time to peak plasma/serum drug concentration (tmax) ([7]; oral): ≤ 1 h

CC(=O)c1ccc(S(=O)(=O)NC(=O)NC2CCCCC2)cc1 [Acetohexamide]
onset of action [8]: 1 h

CCCNC(=O)NS(=O)(=O)c1ccc(Cl)cc1 [Chlorpropamide]
duration of action [8]: 72 h
onset of action [8]: one

CCC1=C(C)CN(C(=O)NCCc2ccc(S(=O)(=O)NC(=O)N[C@H]3CC[C@H](C)CC3)cc2)C1=O [Glimepiride]
duration of action [8]: 18 to 28 h
onset of action [8]: 2 h

Cc1cnc(C(=O)NCCc2ccc(S(=O)(=O)NC(=O)NC3CCCCC3)cc2)cn1 [Glipizide]
duration of action [8]: 10 to 24 h
onset of action [8]: one

Cc1ccc(S(=O)(=O)NC(=O)NN2CCCCCC2)cc1 [Tolazamide]
onset of action [8]: 4 to 6 h

COc1ccc(Cl)cc1C(=O)NCCc1ccc(S(=O)(=O)NC(=O)NC2CCCCC2)cc1 [glyburide]
duration of action [8]: 18 to 24 h
onset of action [8]: 1.5 h

CC(C)[C@H]1CC[C@H](C(=O)N[C@H](Cc2ccccc2)C(=O)O)CC1 [nateglinide]
time to stimulation of pancreatic insulin secretion ([7]; after oral administration): ≤ 20 min
fall of plasma insulin to baseline after dosing [7, 10]: ≤ 4 h
time of peak plasma insulin levels after dosing [7, 10]: ~1 h
time to peak plasma/serum drug concentration (tmax) ([7]; oral): one

CCOc1cc(CC(=O)N[C@@H](CC(C)C)c2ccccc2N2CCCCC2)ccc1C(=O)O [repaglinide]
decrease in AUC when given with food ([7]; food effect): 12.4%
decrease in Cmax when given with food ([7]; food effect): 20%
time to peak plasma/serum drug concentration (tmax) ([7]; oral): ≤ 1 h

CCCCNC(=O)NS(=O)(=O)c1ccc(C)cc1 [tolbutamide]
duration of action [8]: 6 to 12 h
onset of action [8]: 1 h

Glargine insulin: long-acting insulin
duration of activity [9]: 24 h
peak time of effect [9]: no peak effect

Lantus®
duration of activity [9]: up to 24 hours

Ultralente insulin
onset of action [9]: 2 to 4 h
peak time of effect [9]: 8 to 20 h
